In patent US20110082130A1 (LIGAND PHARMACEUTICALS, INC., priority 2006, published 2011):
Each block holds one molecule with its values, some of them ahead of it.

Molecular target: T1, chimeric human H3 receptor (Homo sapiens, UniProt Q9Y5N1)
T1 construct: made in house; host or cells: Sf9 insect cells (baculovirus); P2 membrane preparation
Experiment: Chimeric human H3 receptor GTP binding assay (agonist-stimulated GTP-gamma35S binding, Example 7)
Format: biochemical
Method in brief: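 Sf9 membranes co-expressing chimeric human H3 receptor and heterotrimeric G-protein, 35 μg/tube, in pH 7.4 Tris buffer with 10 μM GDP. Test compounds (10^−10–10^−6 M) competed against 1 μM histamine, […] GTP-gamma35S, 60 min at room temperature. Filter-bound radioactivity counted; IC50 converted to Ki by Cheng-Prusoff. Agonism/inverse agonism tested without histamine (EC50).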

[1] = Table II "Ki", symbol *, assay of Example 7
[2] = Table I, P2 membranes of Sf9 cells, 1 μM histamine as agonist, Ki from IC50 by Cheng-Prusoff
[3] = Table II, "*" = Ki in assay of Example 7 less than 1 micromolar
[4] = assay of Example 7, "*" in Ki of Table II

T1 sequence (Q9Y5N1 with tags, fused parts or gaps): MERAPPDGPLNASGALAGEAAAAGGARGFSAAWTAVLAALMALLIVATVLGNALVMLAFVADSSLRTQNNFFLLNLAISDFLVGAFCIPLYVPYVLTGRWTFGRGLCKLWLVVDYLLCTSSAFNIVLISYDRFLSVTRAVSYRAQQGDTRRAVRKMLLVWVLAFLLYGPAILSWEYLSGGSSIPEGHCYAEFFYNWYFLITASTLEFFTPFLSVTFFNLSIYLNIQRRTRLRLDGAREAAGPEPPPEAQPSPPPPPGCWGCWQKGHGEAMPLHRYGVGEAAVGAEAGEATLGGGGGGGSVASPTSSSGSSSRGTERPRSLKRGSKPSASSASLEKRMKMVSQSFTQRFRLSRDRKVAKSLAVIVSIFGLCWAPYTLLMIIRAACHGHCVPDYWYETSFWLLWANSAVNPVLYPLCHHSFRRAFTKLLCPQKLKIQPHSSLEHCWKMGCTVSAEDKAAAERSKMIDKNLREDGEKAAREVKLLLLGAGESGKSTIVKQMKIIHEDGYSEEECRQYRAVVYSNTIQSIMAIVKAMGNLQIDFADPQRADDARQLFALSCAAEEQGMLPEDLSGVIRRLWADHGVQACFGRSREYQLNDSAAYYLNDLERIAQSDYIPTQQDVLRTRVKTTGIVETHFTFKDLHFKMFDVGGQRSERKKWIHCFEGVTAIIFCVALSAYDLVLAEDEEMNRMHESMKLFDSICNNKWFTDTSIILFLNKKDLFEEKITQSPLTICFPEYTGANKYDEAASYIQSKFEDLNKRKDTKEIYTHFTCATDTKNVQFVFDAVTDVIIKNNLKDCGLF

SMILES: O=C(CN1CCc2cc(-c3cncnc3)ccc2C1)N1CCN(C2CCC2)CC1 [Compound 70, 2-[2-(4-cyclobutylpiperazin-1-yl)-2-oxoethyl]-6-pyrimidin-5-yl-1,2,3,4-tetrahydrasoquinoline]
Ki [2]: < 1000 nM

SMILES: CC(C)c1ccc(-c2ccc3c(c2)CCN(CC(=O)N2CCN(C4CCC4)CC2)C3)nc1 [Compound 647, 2-[2-(4-cyclobutylpiperazin-1-yl)-2-oxoethyl]-6-(5-isopropylpyridin-2-yl)-1,2,3,4-tetrahydroisoquinoline]
Ki [1]: < 1000 nM

SMILES: N#Cc1ccc(-n2cc3c(n2)CCN(CC(=O)N2CCN(C4CCC4)CC2)C3)nn1 [Compound 203, 6-{5-[2-(4-cyclobutylpiperazin-1-yl)-2-oxoethyl]-4,5,6,7-tetrahydro-2H-pyrazolo[4,3-c]pyridin-2-yl}pyridazine-3-carbonitrile]
Ki [3]: < 1000 nM

SMILES: COc1ccc(-c2nc3c(s2)CN(CC(=O)N2CCN(C4CCC4)CC2)CC3)c(C)c1 [Compound 335, 5-[2-(4-cyclobutylpiperazin-1-yl)-2-oxoethyl]-2-(4-methoxy-2-methylphenyl)-4,5,6,7-tetrahydro[1,3]thiazolo [5,4-c]pyridine]
Ki [4]: < 1000 nM

SMILES: Cc1ccc(F)c(-c2nc3c(s2)CN(CC(=O)N2CCN(C4CCC4)CC2)CC3)c1 [Compound 302, 5-[2-(4-cyclobutylpiperazin-1-yl)-2-oxoethyl]-2-(2-fluoro-5-methylphenyl)-4,5,6,7-tetrahydro[1,3]thiazolo [5,4-c]pyridine]
Ki [4]: < 1000 nM

SMILES: COc1ccc(-c2ccc3c(c2)CCN(CC(=O)N2CCN(C4CCC4)CC2)C3)cn1 [Compound 95, 2-[2-(4-cyclobutylpiperazin-1-yl)-2-oxoethyl]-6-(6-methoxypyridin-3-yl)-1,2,3,4-tetrahydroisoquinoline]
Ki [3]: < 1000 nM

SMILES: O=C(CN1CCc2[nH]c(=O)ccc2C1)N1CCN(C2CCCCC2)CC1 [Compound 136, 6-[2-(4-cyclohexylpiperazin-1-yl)-2-oxoethyl]-5,6,7,8-tetrahydro-1,6-naphthyridin-2(1H)-one]
Ki [3]: < 1000 nM

SMILES: N#Cc1ccccc1-c1ccc2c(c1)CCN(CC(=O)N1CCN(C3CCC3)CC1)C2 [Compound 627, 2-{2-[2-(4-cyclobutylpiperazin-1-yl)-2-oxoethyl]-1,2,3,4-tetrahydroisoquinolin-6-yl}benzonitrile]
Ki [1]: < 1000 nM

SMILES: O=C(CN1CCc2nc(-c3c(F)cccc3F)sc2C1)N1CCN(C2CCC2)CC1 [Compound 353, 5-[2-(4-cyclobutylpiperazin-1-yl)-2-oxoethyl]-2-(2,6-difluorophenyl)-4,5,6,7-tetrahydro[1,3]thiazolo [5,4-c]pyridine]
Ki [4]: < 1000 nM

SMILES: COc1ccc(-c2ccc3c(c2)CCN(CC(=O)N2CCN(C4CCCCC4)CC2)C3)cc1OC [Compound 526, 2-[2-(4-cyclohexylpiperazin-1-yl)-2-oxoethyl]-6-(3,4-dimethoxyphenyl)-1,2,3,4-tetrahydroisoquinoline]
Ki [1]: < 1000 nM

SMILES: Cc1cnn(-c2ccc3c(c2)CCN(CC(=O)N2CCN(C4CCC4)CC2)C3)c1 [Compound 217, 2-[2-(4-cyclobutylpiperazin-1-yl)-2-oxoethyl]-6-(4-methyl-1H-pyrazol-1-yl)-1,2,3,4-tetrahydroisoquinoline]
Ki [3]: < 1000 nM

SMILES: COc1cc(F)c(-c2ccc3c(c2)CCN(CC(=O)N2CCN(C4CCC4)CC2)C3)cc1F [Compound 506, 2-[2-(4-cyclobutylpiperazin-1-yl)-2-oxoethyl]-6-(2,5-difluoro-4-methoxyphenyl)-1,2,3,4-tetrahydroisoquinoline]
Ki [1]: < 1000 nM

SMILES: CC(=O)c1ccc(-c2cnc3n2CCN(CC(=O)N2CCN(C4CCC4)CC2)C3)cc1 [Compound 82, 1-(4-{7-[2-(4-cyclobutylpiperazin-1-yl)-2-oxoethyl]-5,6,7,8-tetrahydroimidazo[1,2-a]pyrazin-3-yl}phenyl)ethanone]
Ki [2]: < 1000 nM

SMILES: CC1CCCC1N1CCN(C(=O)CN2CCc3nc(N4CCOCC4)ncc3C2)CC1 (stereo not shown) [Compound 205, 6-{2-[4-(2-methylcyclopentyl)piperazin-1-yl]-2-oxoethyl}-2-morpholin-4-yl-5,6,7,8-tetrahydropyrido[4,3-d]pyrimidine]
Ki [3]: < 1000 nM

SMILES: CCCCc1ccc(-c2nc3c(s2)CN(CC(=O)N2CCN(C4CCC4)CC2)CC3)cc1 [Compound 309, 2-(4-butylphenyl)-5-[2-(4-cyclobutylpiperazin-1-yl)-2-oxoethyl]-4,5,6,7-tetrahydro[1,3]thiazolo [5,4-c]pyridine]
Ki [4]: < 1000 nM

SMILES: O=C(CN1CCc2nn(-c3ncccn3)cc2C1)N1CCN(C2CCC2)CC1 [Compound 248, 5-[2-(4-cyclobutylpiperazin-1-yl)-2-oxoethyl]-2-pyrimidin-2-yl-4,5,6,7-tetrahydro-2H-pyrazolo[4,3-c]pyridine]
Ki [3]: < 1000 nM

SMILES: COc1ccc(OC)c(-c2nc3c(s2)CN(CC(=O)N2CCN(C4CCC4)CC2)CC3)c1 [Compound 339, 5-[2-(4-cyclobutylpiperazin-1-yl)-2-oxoethyl]-2-(2,5-dimethoxyphenyl)-4,5,6,7-tetrahydro[1,3]thiazolo [5,4-c]pyridine]
Ki [4]: < 1000 nM

Results, then the molecule that gave them:

Ki [1]: < 1000 nM
SMILES: CO[C@H]1CCN(c2ccc3c(n2)CCN(CC(=O)N2CCN(C4CCC4)CC2)C3)C1 [Compound 670, 6-[2-(4-cyclobutylpiperazin-1-yl)-2-oxoethyl]-2-[(3S)-3-methoxypyrrolidin-1-yl]-5,6,7,8-tetrahydro-1,6-naphthyridine]

Ki [3]: < 1000 nM
SMILES: O=C(CN1CCc2cc(-c3cncs3)ccc2C1)N1CCN(C2CCC2)CC1 [Compound 132, 2-[2-(4-cyclobutylpiperazin-1-yl)-2-oxoethyl]-6-(1,3-thiazol-5-yl)-1,2,3,4-tetrahydroisoquinoline]

Ki [1]: < 1000 nM
SMILES: CCC(COC)Nc1ccc2c(n1)CCN(CC(=O)N1CCN(C3CCC3)CC1)C2 (stereo not shown) [Compound 666, 6-[2-(4-cyclobutylpiperazin-1-yl)-2-oxoethyl]-N-[1-(methoxymethyl)propyl]-5,6,7,8-tetrahydro-1,6-naphthyridin-2-amine]

Ki [3]: < 1000 nM
SMILES: O=C(CN1CCc2cc(C(=O)N3CCCC3)ccc2C1)N1CCN(C2CCC2)CC1 [Compound 89, 2-[2-(4-cyclobutylpiperazin-1-yl)-2-oxoethyl]-6-(pyrrolidin-1-ylcarbonyl)-1,2,3,4-tetrahydroisoquinoline]

Ki [3]: < 1000 nM
SMILES: O=C(CN1CCc2cc(-n3ccnn3)ccc2C1)N1CCN(C2CCC2)CC1 [Compound 208, 2-[2-(4-cyclobutylpiperazin-1-yl)-2-oxoethyl]-6-(1H-1,2,3-triazol-1-yl)-1,2,3,4-tetrahydroisoquinoline]

Ki [3]: < 1000 nM
SMILES: O=C(CN1CCc2cc(Br)ccc2C1)N1CCN(C2CCC2)CC1 [Compound 118, 6-bromo-2-[2-(4-cyclobutylpiperazin-1-yl)-2-oxoethyl]-1,2,3,4-tetrahydroisoquinoline]

Ki [4]: < 1000 nM
SMILES: COc1cccc(-c2ccc3c(c2)CCN(CC(=O)N2CCN(C4CCC4)CC2)C3)c1 [Compound 475, 2-[2-(4-cyclobutylpiperazin-1-yl)-2-oxoethyl]-6-(3-methoxyphenyl)-1,2,3,4-tetrahydroisoquinoline]

Ki [3]: < 1000 nM
SMILES: C[C@H]1CCCN1c1ccc2c(n1)CCN(CC(=O)N1CCN(C3CCC3)CC1)C2 (stereo in doubt) [Compound 223, 6-[2-(4-cyclobutylpiperazin-1-yl)-2-oxoethyl]-2-(2-methylpyrrolidin-1-yl)-5,6,7,8-tetrahydro-1,6-naphthyridine]

Ki [3]: < 1000 nM
SMILES: Cn1cc(-n2cc3c(n2)CCN(CC(=O)N2CCN(C4CCC4)CC2)C3)ccc1=O [Compound 262, 5-{5-[2-(4-cyclobutylpiperazin-1-yl)-2-oxoethyl]-4,5,6,7-tetrahydro-2H-pyrazolo[4,3-c]pyridin-2-yl}-1-methylpyridin-2(1H)-one]

Ki [3]: < 1000 nM
SMILES: CCOC(=O)c1ccc2c(c1)CCN(CC(=O)N1CCN(C3CCC3)CC1)C2 [Compound 86, ethyl 2-[2-(4-cyclobutylpiperazin-1-yl)-2-oxoethyl]-1,2,3,4-tetrahydroisoquinoline-6-carboxylate]

Ki [4]: < 1000 nM
SMILES: O=C(CN1CCc2nc(-c3ccccc3)sc2C1)N1CCN(C2CCC2)CC1 [Compound 294, 5-[2-(4-cyclobutylpiperazin-1-yl)-2-oxoethyl]-2-phenyl-4,5,6,7-tetrahydro[1,3]thiazolo [5,4-c]pyridine]

Ki [1]: < 1000 nM
SMILES: COc1cc(-c2ccc3c(c2)CCN(CC(=O)N2CCN(C4CCC4)CC2)C3)cc(OC)c1OC [Compound 516, 2-[2-(4-cyclobutylpiperazin-1-yl)-2-oxoethyl]-6-(3,4,5-trimethoxyphenyl)-1,2,3,4-tetrahydroisoquinoline]

Ki [1]: < 1000 nM
SMILES: CC1CCCC1N1CCN(C(=O)CN2CCc3cc(-c4cncnc4)ccc3C2)C[C@@H]1C (stereo partly drawn) [Compound 614, 2-{2-[(3S)-3-methyl-4-(2-methylcyclopentyl)piperazin-1-yl]-2-oxoethyl}-6-pyrimidin-5-yl-1,2,3,4-tetrahydroisoquinoline]

Ki [3]: < 1000 nM
SMILES: O=C(CN1CCc2cc(-c3ccc4nccn4c3)ccc2C1)N1CCN(C2CCC2)CC1 [Compound 231, 2-[2-(4-cyclobutylpiperazin-1-yl)-2-oxoethyl]-6-imidazo[1,2-a]pyridin-6-yl-1,2,3,4-tetrahydroisoquinoline]

Ki [1]: < 1000 nM
SMILES: CC(C)c1ccc(-c2ccc3c(c2)CCN(CC(=O)N2CCN(C4CCC4)CC2)C3)cn1 [Compound 649, 2-[2-(4-cyclobutylpiperazin-1-yl)-2-oxoethyl]-6-(6-isopropylpyridin-3-yl)-1,2,3,4-tetrahydroisoquinoline]

Ki [3]: < 1000 nM
SMILES: O=C(CN1CCc2nn(-c3cncnc3)cc2C1)N1CCN(C2CCC2)CC1 [Compound 252, 5-[2-(4-cyclobutylpiperazin-1-yl)-2-oxoethyl]-2-pyrimidin-5-yl-4,5,6,7-tetrahydro-2H-pyrazolo[4,3-c]pyridine]

Ki [3]: < 1000 nM
SMILES: O=C(CN1CCc2sccc2C1)N1CCN(C2CCC2)CC1 [Compound 265, 5-[2-(4-cyclobutylpiperazin-1-yl)-2-oxoethyl]-4,5,6,7-tetrahydrothieno[3,2-c]pyridine]
